Measured values: paper PMC11726150, “Pre‐ADMET studies of 5‐(3′,4′‐dihydroxyphenyl)‐γ‐valerolactone, the bioactive intestinal metabolite of proanthocyanidins” (Archiv Der Pharmazie, 2024)

Experiments:
CYP1A2 = molecular target: T1, CYP1A2 (Homo sapiens, UniProt P05177); experiment: CYP inhibition assay; format: biochemical
T1 construct: purchased
T1 sequence (P05177 1-516): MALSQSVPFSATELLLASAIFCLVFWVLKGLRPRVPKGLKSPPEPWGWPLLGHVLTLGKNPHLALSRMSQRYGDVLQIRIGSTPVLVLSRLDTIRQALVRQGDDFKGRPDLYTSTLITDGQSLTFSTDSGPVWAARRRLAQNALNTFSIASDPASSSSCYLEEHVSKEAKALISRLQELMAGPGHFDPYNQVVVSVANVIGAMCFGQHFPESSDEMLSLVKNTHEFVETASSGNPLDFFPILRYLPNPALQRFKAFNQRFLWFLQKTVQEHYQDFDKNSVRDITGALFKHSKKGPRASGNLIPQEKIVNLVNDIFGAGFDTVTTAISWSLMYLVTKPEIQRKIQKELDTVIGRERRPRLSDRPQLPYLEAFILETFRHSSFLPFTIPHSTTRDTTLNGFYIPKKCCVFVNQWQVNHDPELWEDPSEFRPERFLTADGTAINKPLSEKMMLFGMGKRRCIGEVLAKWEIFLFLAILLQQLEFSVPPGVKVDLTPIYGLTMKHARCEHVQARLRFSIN
Protocol: (§1) The inhibitory potential of VL toward the catalytic activity of CYP3A4 and CYP1A2 was investigated through CYP inhibition assays using high‐throughput CYP450 screening kits. Stock solutions of VL (10 mM in DMSO) and specific positive controls for each CYP isoform were serially diluted in methanol and reactions were performed in 96‐well plates according to the supplier's instructions. Briefly, 40 μL (×2.5) of test compound and 50 μL master premix were added to 96‐well plates. Plates were incubated for 10 min at room temperature to allow for sufficient interaction of the test compound and enzyme. Following incubation, 10 μL (×10) of enzyme‐specific substrates were added and plates were vortex‐mixed for 30 s. Further, fluorescence was measured at the specified excitation and emission wavelengths for each substrate as recommended per individual kit protocol. Ketoconazole (0.004, 0.01, 0.03, 0.11, 0.33, and 1 μM) and α‐naphthoflavone (0.004, 0.01, 0.03, 0.11, 0.33, and 1 μM) were used as positive controls for CYP3A4 and CYP1A2, respectively. IC50 values were obtained from concentration‐response curves generated by plotting the percentage of inhibition versus concentration.^[ [46] ^]

CYP3A4 = molecular target: T2, CYP3A4 (Homo sapiens, UniProt P08684); experiment: CYP inhibition assay; format: biochemical; conditions: read-out: half‐maximal inhibitory concentration (IC50)
T2 construct: purchased
Protocol: as §1

Caco2 monolayers = experiment: In vitro transport study across 21‐day Caco2 monolayers; format: in vitro ADME, human
Protocol: Caco2 cells between passage numbers 42–50 and MDCK cells between passage numbers 21–26 were used for transport studies; the assay was conducted as reported by Volpe^[ [33] ^] with slight modifications. Transport experiments were performed in 12‐well Transwell plates. Caco2 cells were seeded at a density of 60,000 cells/cm^2 and grown for 21 days, with change of media every 3 days, while MDCK cells were seeded at a density of 70,000 cells/cm^2 and grown for 5 days, changing the medium daily. The physiological and morphological formation of a confluent monolayer was evaluated by measuring the TEER value: Caco2 monolayers became confluent 1 week after seeding with TEER values greater than 450 Ω/cm^2, while MDCK monolayers became confluent 24 h after seeding with TEER values greater than 90 Ω/cm^2. Phenol red and serum‐free DMEM/F12 medium was used as transport buffer. For bidirectional transport, VL (50 μM) and control compound (propranolol and paclitaxel, 10 μM) were added to the apical side to determine apical to basolateral transport (A–B; absorptive direction) and to the basal side to determine basolateral to apical transport (B–A; secretory direction). The volume of the apical and basolateral chambers was 0.5 and 1.5 mL, respectively. Aliquots of 120 μL were taken from the basolateral (for A–B transport) or the apical (for B–A transport) chamber at 30, 60, 90, and 120 min. An equal volume was replaced with a transport buffer at every time point. At the beginning and at the end of the experiment, an aliquot was also taken from the apical or basolateral chamber for analysis of the drug. To determine the integrity of monolayers, TEER values were measured before and after the experiment. In addition, at the end of the experiment cells were collected and lysed to evaluate the compound intake. Briefly, cells were washed twice with cold PBS and 200 µL of cold MeOH was added to detach and lysate the cells; subsequently, cells were collected into lo‐bind Eppendorf and sonicated in ice for 10 min, then centrifuged for 15 min at 4°C at 14,000 rpm (Eppendorf Centrifuge 5430 R). The supernatant was collected and used for further analysis.
The apparent permeability P app (cm/s) of compounds was calculated from the following equation (Equation 1), while P app (cm/s) of the metabolites was calculated from the equation (Equation 2): (1) Papp=dQ/dt×1/C×1/A.
Equation (1) for calculating P app (cm/s) of tested reference compounds. (2) Papp=Metabolic cleareance/A.
Equation (2) for calculating P app (cm/s) of compound metabolites.
with Metabolic cleareance=Rate of metabolism/C and where dQ/dt is the rate of transport, C is the initial concentration in the donor compartment, and A is the surface area of the filter. To quantify the rate of transport, cumulative amounts of test compounds were plotted against time (min).
Efflux ratio was calculated using the following equation (Equation 3)^[ [48] ^]: (3) Efflux ratio=Papp(B−A)/Papp(A−B).

T2 sequence (P08684 whole entry): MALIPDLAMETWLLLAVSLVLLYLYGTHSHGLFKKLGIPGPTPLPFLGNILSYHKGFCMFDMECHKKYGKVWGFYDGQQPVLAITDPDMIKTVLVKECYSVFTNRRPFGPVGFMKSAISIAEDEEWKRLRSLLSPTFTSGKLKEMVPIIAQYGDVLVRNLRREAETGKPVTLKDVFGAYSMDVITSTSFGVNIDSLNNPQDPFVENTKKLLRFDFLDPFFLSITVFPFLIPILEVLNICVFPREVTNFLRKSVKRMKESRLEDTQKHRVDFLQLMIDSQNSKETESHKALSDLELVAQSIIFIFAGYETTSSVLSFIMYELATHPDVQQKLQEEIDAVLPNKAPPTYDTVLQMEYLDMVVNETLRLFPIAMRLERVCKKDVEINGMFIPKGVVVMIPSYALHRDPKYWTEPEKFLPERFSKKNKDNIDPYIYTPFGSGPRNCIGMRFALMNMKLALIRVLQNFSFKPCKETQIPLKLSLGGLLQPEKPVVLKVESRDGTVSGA

inhibition of CYP1A2 (CYP1A2): no inhibition effect
IC50 (CYP3A4): > 25 µM
VL in the donor compartment at the end of the experiment (Caco2 monolayers; Caco2, 50 µM, 120 min): no longer detectable
conversion of VL to sulfate (Caco2 monolayers; after 30 min): 100%
Structure (SMILES): O=C1CCC(Cc2ccc(O)c(O)c2)O1 (stereo not shown) [VL, 5‐(3′,4′‐dihydroxyphenyl)‐γ‐valerolactone]
